Experiment [1] concerns two human HCC cell lines (HEP3B and SNU475). The experiment in a line: MTT cell proliferation assay, two human HCC cell lines. In kind it is cell-based. Particulars: PI3K/Akt pathway inhibitors on two human HCC cell lines. On the technique in general: Formazan colour is commonly taken as a measure of viable cells.
Experimental: (§1) In-vitro studies: cell lines and cell culture. Human HCC cell lines (HEP3B and SNU475 from ATCC, Cambridge, Mass.) were checked regularly for Mycoplasma contamination using RT-PCR kit while growing in culture with high glucose DMEM media supplemented with 10% FBS and 1% Penicillin/Streptomycin (HEP3), or with RPMI 1640 media supplemented with 10% heat inactivated FBS and 1% Penicillin/Streptomycin (SNU475) in 37° C. humidified incubator in presence of CO2 at 5%.
MTT Cell proliferation assay was performed by plating 5000 cells/well in 6 wells (per condition) of 96 well plates and allowed to adhere for 24 hours, when media was replaced with media±treatment agent for another 24 hours to finally assess cell proliferation according to the manufacturer's instructions (MTT assay, from #ATCC® 30-1010K, Cambridge, Mass.). Digoxin was dissolved in serum free media before addition to cells at designated concentrations.
The test system is the same in experiment [2]. The experiment in a line: Protein expression by western blotting/confocal microscopy, two human HCC cell lines. In kind it is cell-based. Particulars: two Human HCC cells exposed to digoxin.
Experimental: as §1
Confocal microscopy assessment on Immuno-stained cells/liver tissue. For in vitro studies, immunocytochemistry was performed on both human HCC cell lines as previously described. Briefly, the treated for 4 hours cells and the untreated cells were plated on glass coverslips and allowed to reach 70% confluency. […] Next day, slides were incubated with secondary antibodies (Alexa Fluor 488 or 549) and mounted with Vectashield mounting media on slides containing DAPI (Vector Laboratories, Inc., H-1800).
Western Blotting. […] Blocked membranes were incubated with the specific primary/secondary antibodies for protein signals to be detected by the Pierce ECL kit (Thermo Fisher Scientific, Waltham, Mass.), and quantified using ImageJ software.

Molecules are shown by their SMILES.

On to `N#C/C(=C/c1ccc(O)c(O)c1)C(=O)NCc1ccccc1` [AG490], for which, in experiment [1], the “cell proliferation (MTT assay)” value is “inhibited cell proliferation”.

Regarding `CC(C)(C)n1nc(-c2ccc(Cl)cc2)c2c(N)ncnc21` [PP2], the “cell proliferation (MTT assay)” value in experiment [1] is recorded as “inhibited cell proliferation”.

Turning to `C[C@H]1O[C@@H](O[C@H]2[C@@H](O)C[C@H](O[C@H]3[C@@H](O)C[C@H](O[C@H]4CC[C@@]5(C)[C@H](CC[C@@H]6[C@@H]5C[C@@H](O)[C@]5(C)[C@@H](C7=CC(=O)OC7)CC[C@]65O)C4)O[C@@H]3C)O[C@@H]2C)C[C@H](O)[C@@H]1O` [digoxin], the expression of survivin result in experiment [2] was “increased the expression of survivin”.

The values above are taken from patent US11958915B2, “Methods for treatment and diagnosis of non-alcoholic steatohepatitis and/or hepatocellular carcinoma” (Marshall University Research Corporation, priority 2020, dated 2024).
